Source: ChEMBL document CHEMBL1150024, “Synthesis and antiviral evaluation of enantiomeric 2,3-dideoxy- and 2,3-didehydro-2,3-dideoxy-4-thionucleosides” (Bioorg Med Chem Lett, 1995)

How the values were obtained:
HepG2 = test: In vitro antiviral activity against HBV in Hep G2 cells; assay type: functional, cell-based; details: Homo sapiens
HeLa = test: In vitro antiviral activity against HIV in HeLa CD4 cells; assay type: functional, cell-based; details: Homo sapiens
[1] = In vitro cytotoxic activity against Vero cells; assay type: cell-based; details: chlorocebus sabaeus, read-out: CCID50

Structure (SMILES)	IC50 (HepG2) [µM]	IC50 (HeLa) [µM]	CC50 [1] [µM]
Nc1ccn([C@@H]2CC[C@H](CO)O2)c(=O)n1	> 100	> 50	> 500
Nc1nc(=O)n([C@H]2C=C[C@@H](CO)S2)cc1F	> 50	< 50	> 500
Nc1ccn([C@@H]2C=C[C@H](CO)S2)c(=O)n1	0.8	0.8	> 500
Nc1nc(=O)n([C@@H]2CC[C@H](CO)O2)cc1F	> 100	> 50	> 500
Nc1nc(=O)n([C@@H]2C=C[C@H](CO)S2)cc1F	3.5	0.4	> 500
Nc1ccn([C@H]2C=C[C@@H](CO)S2)c(=O)n1	15	23	> 500
Nc1ccn([C@H]2CC[C@@H](CO)O2)c(=O)n1 [ZALCITABINE]	> 100	38	> 500
